Assay results as given in patent publication US10154991B2, “Anesthetic compounds and related methods of use” (priority 2012, dated 2018).
“And” between values parts separate entries of the source, which are not always exact repeats. Equal entries are not always repeated. Where two headings read alike, the source gives them in different places.

Key:
Sprague-Dawley rats = test: In vivo sedative/hypnotic testing, IV bolus, rats; design: species or system rat; conditions: rats
Experimental: (§1) Animals were housed in a dedicated room at the vivarium of VivoPath Inc., located at Redstone Center, 55 Union Street, Worcester, Mass. Housing and care was as specified in the USDA Animal Welfare Act (9 CFR, Parts 1, 2, and 3) and as described in the Guide for the Care and Use of Laboratory Animals from the National Research Council. Environmental conditions of housing rooms are set at the following ranges: temperature: 70±7° F. (22±4° C.), humidity: 50±20%, light cycle: 12-hour light/12-hour dark cycle—lights on at 7 am and off at 7 pm., air changes: ten or more air changes per hour with 100% fresh air. The animals' body weights were measured prior to the first dose on each experimental day.
Adult male Sprague-Dawley rats (225-300 g) were purchased from Harlan (South Easton, Mass.).
(§2) Drugs were prepared in either dimethylsulfoxide/saline or saline vehicle or hydroxypropyl-β-cyclodextrin (20% in water, pH 7.0) solution and were administered as an intravenous bolus injection. Animals received 1-4 doses of drug(s) during an experimental day, either ascending doses or different drugs. Doses were administered at intervals equal to the longer of 1 h or 10-times the duration of apparent sedative/hypnotic effects from the previous dose. The sedative/hypnotic properties of the drugs were evaluated by observation of the rats, ranging from mild excitation, mild sedation apparent due to reduced activity, and moderate sedation to hypnosis reflected by loss of righting reflex (LORR, the ability to place rear and hind legs under the body, as well as attenuation/loss of nociceptive reflexes).

[1] = test system: 68 receptors, ion channels and transporters; test: radioligand binding screen; conditions: 10 μM, each radioligand
rats [2] = test: loss of righting reflexes (LORR) assay after IV bolus
Experimental: Adult male Sprague-Dawley rats (230-350 gm) were purchased from Charles River Laboratories (Wilmington, Mass.) and housed in the Massachusetts General Hospital Center for Comparative Medicine animal care facility. All drugs were administered through a femoral venous catheter pre-implanted by the vendor prior to animal delivery to our animal care facility.
Immediately after injection, rats were turned supine. […] A stopwatch was used to measure the duration of LORR, which was defined as the time from drug injection until the animal spontaneously righted itself.

ICR mice = test: In vivo sedative/hypnotic testing, IV bolus, mice; design: species or system mouse; conditions: mice
Experimental: as §1
Adult ICR mice (20-30 g) were purchased from Harlan (South Easton, Mass.). Drugs were administered as intravenous bolus injection in a tail vein.
as §2

rats [3] = test: Anesthesia (LORR) in rats by IV bolus and continuous infusion; format: in vivo, rat
Experimental: Rats were monitored for anesthesia as assessed by loss of righting reflex (LORR) and the subsequent time to recovery from LORR. Bolus doses of 1.0 mg/kg and greater induced dose-dependent anesthesia. The minimum effective bolus anesthetic dose in rats was approximately 1 mg/kg based on LORR observations. Time to recovery from LORR was dose-dependent.
Cyclopropyl-MOC-metomidate anesthesia in rats by continuous infusion without a bolus induction dose was examined in this study. An infusion of […] induced anesthesia after approximately 3 minutes as measured by LORR. Recovery of righting reflex took approximately 4 minutes following infusion discontinuation whether the infusion was conducted for 5 or 120 minutes.
Cyclopropyl-MOC-metomidate continuous infusion studies were conducted to determine the minimum effective infusion dose required to induce anesthesia. […] When stable anesthesia was observed after 30 minutes of infusion, the infusion rate was reduced to 0.8 mg/kg/min and then to 0.6 mg/kg/min and 0.4 mg/kg/min at 30-minute intervals. Anesthesia and LORR was maintained in all rats at 0.6 mg/kg/min. […] In one rat, the infusion at 0.4 mg/kg/min was discontinued after 7 minutes due to inadequate the anesthesia. The other two rats received the full 30-minute infusion at […] with no further change. Rats recovered from LORR and resumed normal behavior within 2-6 minutes of stopping the infusion. Based on these observations, the minimum effective infusion dose rate required to maintain anesthesia was determined to be approximately 0.5 mg/kg/min. An independent assessment of “minimal immobilizing infusion rate” of cyclopropyl-MOC-metomidate in rats yielded a value of 0.89±0.18 mg/kg/min.

[4] = in vivo
[5] = biological target: T1, human α1(L264T), β2 and γ2L subunits of the GABAA receptor (Homo sapiens, UniProt P14867+P47870, L291T); test: GABAA receptor current in Xenopus oocytes, 2-electrode voltage clamp; format: cell-based
T1 construct: expressed in transfected cells; host or cells: Xenopus oocytes
Experimental: Cyclopropyl-MOC-metomidate induces anesthesia by acting as a positive allosteric modulator of the γ-aminobutyric acid (GABA) type A (GABAA) receptor. Cyclopropyl-MOC-metomidate and its principle metabolite, CPM-acid, were evaluated for their ability to potentiate activation of GABAA receptor current in Xenopus oocytes expressing the human α1(L264T), β2 and γ2L subunits of the GABAA receptor using established methods (Ge et al., 2011). The […] mutant was used rather than wild-type GABAA receptor because it is directly activated by anesthetics, allowing a simpler assessment of the drug potency without the need for concomitant activation by GABA. Anesthetic potency on this mutated GABAA receptor is similar to that on wild-type receptors. Currents were recorded using conventional 2-electrode voltage clamp technique at a holding potential of −50 mV. Oocytes were placed in a 0.04-mL recording chamber and constantly perfused at a rate of 4-6 mL/min. The current response to ABP-700 or CPM-acid was normalized to that produced by 100 μM GABA in the same oocyte and data presented as mean±SD from 3-6 oocytes.

[6] = Pharmacokinetics in dogs, IV bolus and bolus plus infusion; format: in vivo, dog
GABAA receptor channel = test: radioligand binding to the GABAA receptor channel; conditions: 10 μM

T1 sequence (P14867 28-456 L291T): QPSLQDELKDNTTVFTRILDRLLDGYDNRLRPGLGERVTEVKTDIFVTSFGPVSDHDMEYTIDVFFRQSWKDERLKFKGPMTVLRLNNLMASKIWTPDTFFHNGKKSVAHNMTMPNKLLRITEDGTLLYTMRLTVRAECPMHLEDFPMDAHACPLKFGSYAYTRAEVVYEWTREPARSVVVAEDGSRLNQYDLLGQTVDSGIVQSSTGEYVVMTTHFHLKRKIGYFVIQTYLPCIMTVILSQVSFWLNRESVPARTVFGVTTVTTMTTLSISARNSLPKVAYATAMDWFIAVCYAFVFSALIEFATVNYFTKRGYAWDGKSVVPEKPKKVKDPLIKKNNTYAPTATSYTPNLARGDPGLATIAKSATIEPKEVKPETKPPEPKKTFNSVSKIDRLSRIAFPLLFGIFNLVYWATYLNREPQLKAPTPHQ
T1 sequence (P47870 25-512 limits assumed): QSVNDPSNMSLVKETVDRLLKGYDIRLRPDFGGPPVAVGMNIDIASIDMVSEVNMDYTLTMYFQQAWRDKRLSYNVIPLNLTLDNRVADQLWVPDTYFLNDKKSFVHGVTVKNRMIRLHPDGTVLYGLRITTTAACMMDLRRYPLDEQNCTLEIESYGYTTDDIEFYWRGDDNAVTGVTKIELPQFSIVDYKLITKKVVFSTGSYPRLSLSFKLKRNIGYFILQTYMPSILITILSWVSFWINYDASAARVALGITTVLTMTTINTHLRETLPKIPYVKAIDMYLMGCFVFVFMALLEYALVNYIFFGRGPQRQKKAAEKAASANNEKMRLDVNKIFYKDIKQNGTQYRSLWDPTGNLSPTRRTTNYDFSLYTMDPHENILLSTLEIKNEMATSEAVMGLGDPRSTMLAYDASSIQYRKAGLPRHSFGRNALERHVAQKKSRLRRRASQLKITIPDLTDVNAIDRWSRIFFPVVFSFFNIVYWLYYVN
T1 sequence (P18507 40-475 partner): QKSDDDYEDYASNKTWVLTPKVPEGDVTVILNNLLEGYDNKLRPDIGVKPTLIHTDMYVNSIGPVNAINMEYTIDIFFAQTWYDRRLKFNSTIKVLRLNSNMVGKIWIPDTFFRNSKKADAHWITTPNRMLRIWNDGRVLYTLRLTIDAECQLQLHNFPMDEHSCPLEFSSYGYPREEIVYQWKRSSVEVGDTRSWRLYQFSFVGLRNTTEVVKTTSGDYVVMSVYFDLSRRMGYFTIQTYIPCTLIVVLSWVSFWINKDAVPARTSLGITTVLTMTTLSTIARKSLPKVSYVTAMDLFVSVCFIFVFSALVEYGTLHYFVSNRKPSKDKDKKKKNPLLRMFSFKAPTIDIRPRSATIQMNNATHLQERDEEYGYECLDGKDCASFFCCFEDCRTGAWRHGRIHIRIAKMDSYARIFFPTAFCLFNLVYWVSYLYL

COC(=O)C1(OC(=O)c2cncn2[C@H](C)c2ccccc2)CC1 [Cyclopropyl- methoxycarbonyl metomidate, cyclopropyl-methoxycarbonyl metomidate]
slope of duration of LORR vs logarithm of dose (Sprague-Dawley rats): approximately 10
inhibition of radioligand binding [1]: no more than 25%
ED50 (rats [2]; Rattus norvegicus, iv, read-out: ED50 ± SD): 0.69 ± 0.04 mg/kg
hypnotic potency compared with methoxycarbonyl etomidate and etomidate (rats [2]; rat, in vivo): nearly an order of magnitude higher than that of methoxycarbonyl etomidate and similar to that of etomidate
in vivo duration of action compared with methoxycarbonyl etomidate and etomidate (rats [2]; rat, in vivo): intermediate between those of methoxycarbonyl etomidate and etomidate
slope of duration of LORR vs logarithm of dose (ICR mice): approximately 7
minimum effective infusion dose rate to maintain anesthesia (rats [3]): approximately 0.5 mg/kg/min
recovery from LORR and normal behavior after stopping the infusion (rats [3]; 4 mg/kg bolus then 1 to 0.4 mg/kg/min step-down infusion): 2 to 6 min
minimum effective bolus anesthetic dose (rats [3]; IV bolus, LORR): approximately 1 mg/kg
duration of anesthesia and LORR (rats [3]; bolus dose of 4 mg/kg): 3 to 8 min
minimal immobilizing infusion rate (rats [3]; independent assessment): 0.89 ± 0.18 mg/kg/min
recovery of righting reflex after infusion discontinuation (rats [3]; infusion for 5 or 120 minutes): approximately 4 minutes
time to induction of anesthesia (LORR) (rats [3]; infusion of 4 mg/kg without bolus): approximately 3 minutes
plasma concentrations associated with anesthesia [4]: 200 to 3000 nM
EC50 [5]: 5.8 ± 1.1 µM
concentration having minimal effects on current [5]: ~0.3 µM
first-phase decline of levels ([6]; IV bolus 0.25-12 mg/kg, first 5-10 minutes): > 10 fold
venous blood concentration when sedated/anesthetized ([6]; bolus and continuous infusion, listed as cyclopropyl-MOC-metomidate): > 250 ng/mL and > 0.8 μM
concentration at 24 h ([6]; both sexes, dog, in vivo, IV bolus, read-out: level in 24-hour PK samples (below level of quantification)): < 0.1 ng/mL
half-life ([6]; both sexes, dog, in vivo, IV bolus, read-out: secondary terminal elimination half-life): 5 to 10 min
half-life ([6]; dog, in vivo, read-out: half-life of secondary phase of decline after infusion): ~20 min
decline of levels after discontinuation of infusion ([6]; first 10-30 minutes after infusion): ~50 fold
effect on binding of [3H]-flunitrazepam (GABAA receptor channel): no effect
effect on binding of [3H]-muscimol (GABAA receptor channel): no effect
